Test [1] concerns the target T1, human Edg-1(S1P1) (Homo sapiens, UniProt P21453).
T1 construct: expressed in transfected cells; host or cells: HEK-293
The test can be described thus: Membrane system binding test: inhibition of [33P]-S1P binding to the membrane fraction of Edg-1(S1P1) gene transferred HEK-293 cells. The following applies: [33P]-S1P 0.1 nM. The method in brief:
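Compound tested at 10^−5 M final (0.1% DMSO) for blocking 0.1 nM [^33P]-S1P binding to S1P1-expressing HEK-293 membranes, 30 °C, 1 h. Radioactivity retained on filters was counted, and percent inhibition derived relative to vehicle binding, correcting for the background of non-transfected HEK-293 membranes.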

Test [2] addresses T1, human Edg-1(S1P1). The test can be described thus: Cell system binding test: inhibition of [3H]-S1P binding to Edg-1(S1P1) gene transferred HEK-293 cells. The note with it: [3H]-S1P 10 nM.
[3] abbreviates: 10 μM compound, membrane fraction of Edg-1(S1P1) gene transferred HEK-293 cells, read-out: Membrane system binding test % inhibition (10 μM).
Setting [4] is: 10 μM compound, read-out: Cell system binding test % inhibition (10 μM).
[5] abbreviates: 10 μM compound, membrane fraction of Edg-1(S1P1) gene transferred HEK-293 cells.
Setting [6] is: test compound 10^-5 M, 1 hour at 30° C., HEK-293 membrane fraction, read-out: Edg-1(S1P1) binding inhibition rate (membrane system binding test).
Setting [7] is: test compound 10^-5 M, 1 hour, read-out: Edg-1(S1P1) binding inhibition rate (cell system binding test).

Structures are written as SMILES.

A word on the inhibition: it is the drop in the measured response relative to a control, in per cent.

T1 sequence (P21453 whole entry): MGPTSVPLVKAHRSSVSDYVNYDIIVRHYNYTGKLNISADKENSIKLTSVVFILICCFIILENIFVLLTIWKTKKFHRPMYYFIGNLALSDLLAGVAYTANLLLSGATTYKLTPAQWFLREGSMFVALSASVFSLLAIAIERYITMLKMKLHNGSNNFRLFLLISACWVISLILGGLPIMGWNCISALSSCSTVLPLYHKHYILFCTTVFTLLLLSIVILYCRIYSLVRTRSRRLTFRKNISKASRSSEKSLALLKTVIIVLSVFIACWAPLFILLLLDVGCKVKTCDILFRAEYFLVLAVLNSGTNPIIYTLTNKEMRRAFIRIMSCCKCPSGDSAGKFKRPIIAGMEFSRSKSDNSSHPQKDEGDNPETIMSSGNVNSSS

As for `CCOc1nnc([C@@H](C)NS(=O)(=O)c2ccc(CC)cc2)n1CC` [Compound 446], the inhibition at 10 µM stood at 72.5% at human Edg-1(S1P1) [1] (setting [3]) and 91.4% at human Edg-1(S1P1) [2] (setting [4]).

`CCOc1nnc([C@@H](C)NS(=O)(=O)c2cccc(OC)c2)n1CC` [Compound 447]: the “Membrane system binding test % inhibition (10 μM)” value on human Edg-1(S1P1) [1] (setting [5]) came out at 72.2%. Moreover, at human Edg-1(S1P1) [2] (10 μM compound), the “Cell system binding test % inhibition (10 μM)” value turned out to be 89.2%.

Take `CCn1c(OC)nnc1[C@@H](C)NS(=O)(=O)c1ccc(Br)c(Br)c1` [Compound 448]: the “Membrane system binding test % inhibition (10 μM)” value at human Edg-1(S1P1) [1] (setting [5]) turned out to be 99.6%. In addition, the “Cell system binding test % inhibition (10 μM)” value at human Edg-1(S1P1) [2] (10 μM compound) worked out at 89.7%.

Regarding `CCn1c(OC)nnc1[C@@H](C)NS(=O)(=O)c1cc(F)c(Br)cc1F` [Compound 449], on human Edg-1(S1P1) [1] (setting [5]), the “Membrane system binding test % inhibition (10 μM)” value was 65.9%. Also, at human Edg-1(S1P1) [2] (10 μM compound), the “Cell system binding test % inhibition (10 μM)” value is reported as 91.6%.

For `CCOc1nnc([C@@H](C)NS(=O)(=O)c2cc(F)c(F)c(F)c2)n1CC` [Compound 450], the inhibition at 10 µM on human Edg-1(S1P1) [1] (setting [3]) turned out to be 93.8%; on human Edg-1(S1P1) [2] (setting [4]), 92.3%.

Turning to `CCOc1nnc([C@@H](C)NS(=O)(=O)c2cc(F)c(Br)cc2F)n1CC` [Compound 451], the values for the inhibition at 10 µM at human Edg-1(S1P1) [1] (setting [3]) and at human Edg-1(S1P1) [2] (setting [4]) were 62.7% and 94.2%, respectively.

As to `CCn1c(OC(C)C)nnc1[C@@H](C)NS(=O)(=O)c1ccc(Br)s1` [Compound 452], the inhibition at 10 µM on human Edg-1(S1P1) [1] (setting [6]) was 89.7%; on human Edg-1(S1P1) [2] (setting [7]), 91.8%.

As for `CCn1c(OC(C)C)nnc1[C@@H](C)NS(=O)(=O)c1ccc(Cl)c(Cl)c1` [Compound 453], the inhibition at 10 µM at human Edg-1(S1P1) [1] (setting [6]) came out at 97.1%; at human Edg-1(S1P1) [2] (setting [7]), 89.4%.

For `CCn1c(OC(C)C)nnc1[C@@H](C)NS(=O)(=O)c1ccc(C)c(Cl)c1` [Compound 454], the results for the inhibition at 10 µM on human Edg-1(S1P1) [1] (setting [6]) and on human Edg-1(S1P1) [2] (setting [7]) were 92.6% and 91.7%, respectively.

On to `CCn1c(OC(C)C)nnc1[C@@H](C)NS(=O)(=O)c1ccc(Br)c(F)c1` [Compound 455], for which the inhibition at 10 µM is 91.7% on human Edg-1(S1P1) [1] (setting [6]) and 93.2% at human Edg-1(S1P1) [2] (setting [7]).

Regarding `CCn1c(OC(C)C)nnc1[C@@H](C)NS(=O)(=O)c1ccc(F)c(Cl)c1` [Compound 456], the results for the inhibition at 10 µM at human Edg-1(S1P1) [1] (setting [6]) and at human Edg-1(S1P1) [2] (setting [7]) were 89% and 87.4%, respectively.

Turning to `CCn1c(OC(C)C)nnc1[C@@H](C)NS(=O)(=O)c1ccc(Br)c(C)c1` [Compound 457], the figures for the inhibition at 10 µM on human Edg-1(S1P1) [1] (setting [6]) and at human Edg-1(S1P1) [2] (setting [7]) were 101% and 85.4%, respectively.

Consider `CCn1c(OC(C)C)nnc1[C@@H](C)NS(=O)(=O)c1cc(F)c(F)c(F)c1` [Compound 458], for which the inhibition at 10 µM was found to be 91.9% on human Edg-1(S1P1) [1] (setting [6]) and 86.5% at human Edg-1(S1P1) [2] (setting [7]).

Consider `CCn1c(OC)nnc1[C@@H](COC)NS(=O)(=O)c1ccc(Cl)cc1` [Compound 459], for which the inhibition at 10 µM was 68.5% on human Edg-1(S1P1) [1] (setting [6]) and 89.9% at human Edg-1(S1P1) [2] (setting [7]).

Take `CCn1c(OC(C)C)nnc1[C@@H](C)NS(=O)(=O)c1cccc(Br)c1` [Compound 460]: the inhibition at 10 µM at human Edg-1(S1P1) [1] (setting [6]) was found to be 76.3%; at human Edg-1(S1P1) [2] (setting [7]), 94.5%.

On to `CCn1c(OC(C)C)nnc1[C@@H](C)NS(=O)(=O)c1ccc(Br)cc1` [Compound 461], for which the inhibition at 10 µM was determined as 89.5% on human Edg-1(S1P1) [1] (setting [6]) and 87.9% at human Edg-1(S1P1) [2] (setting [7]).

In the case of `CCn1c(OC(C)C)nnc1[C@@H](C)NS(=O)(=O)c1ccc(C)c(C)c1` [Compound 462], the inhibition at 10 µM on human Edg-1(S1P1) [1] (setting [6]) turned out to be 92.1%; at human Edg-1(S1P1) [2] (setting [7]), 83.5%.

As to `CCn1c(OC(C)C)nnc1[C@@H](C)NS(=O)(=O)c1ccc(C)c(F)c1` [Compound 463], the inhibition at 10 µM at human Edg-1(S1P1) [1] (setting [6]) worked out at 97.2%; on human Edg-1(S1P1) [2] (setting [7]), 88.7%.

For the molecule `CCn1c(OC(C)C)nnc1[C@@H](C)NS(=O)(=O)c1ccc2ccccc2c1` [Compound 464], the inhibition at 10 µM was determined as 98.3% on human Edg-1(S1P1) [1] (setting [6]) and 99.6% on human Edg-1(S1P1) [2] (setting [7]).

Turning to `CCn1c(OC(C)C)nnc1[C@@H](C)NS(=O)(=O)c1ccc(F)c(F)c1` [Compound 465], the inhibition at 10 µM at human Edg-1(S1P1) [1] (setting [6]) came out at 88%; at human Edg-1(S1P1) [2] (setting [7]), 97.9%.

In the case of `CCn1c(OC(C)C)nnc1[C@@H](C)NS(=O)(=O)c1cccc(OC(F)F)c1` [Compound 466], the inhibition at 10 µM at human Edg-1(S1P1) [1] (setting [6]) was determined as 88.8%; on human Edg-1(S1P1) [2] (setting [7]) it was 99.3%.

As to `CCn1c(OC(C)C)nnc1[C@@H](C)NS(=O)(=O)c1ccc(Br)c(Br)c1` [Compound 467], the inhibition at 10 µM at human Edg-1(S1P1) [1] (setting [6]) came out at 98.6%; on human Edg-1(S1P1) [2] (setting [7]), 100%.

As to `CCn1c(OC(C)C)nnc1[C@@H](C)NS(=O)(=O)c1cccc(C(F)(F)F)c1` [Compound 468], the figures for the inhibition at 10 µM at human Edg-1(S1P1) [1] (setting [6]) and on human Edg-1(S1P1) [2] (setting [7]) were 75.8% and 96.9%, respectively.

On to `CCn1c(OC(C)C)nnc1[C@@H](C)NS(=O)(=O)c1cccc(OC(F)(F)F)c1` [Compound 469], for which the inhibition at 10 µM at human Edg-1(S1P1) [1] (setting [6]) was determined as 83.9%; on human Edg-1(S1P1) [2] (setting [7]), 95.9%.

Take `CCn1c(OC(C)C)nnc1[C@@H](C)NS(=O)(=O)c1cccc(C)c1` [Compound 470]: the inhibition at 10 µM at human Edg-1(S1P1) [1] (setting [6]) was 80.8%; on human Edg-1(S1P1) [2] (setting [7]) it was 91.6%.

For the molecule `CCn1c(OC(C)C)nnc1[C@@H](C)NS(=O)(=O)c1cccc(Cl)c1C` [Compound 471], the inhibition at 10 µM stood at 91% at human Edg-1(S1P1) [1] (setting [6]) and 96.5% on human Edg-1(S1P1) [2] (setting [7]).

In the case of `CCn1c(OC(C)C)nnc1[C@@H](C)NS(=O)(=O)c1ccc2nsnc2c1` [Compound 472], the values for the inhibition at 10 µM on human Edg-1(S1P1) [1] (setting [6]) and at human Edg-1(S1P1) [2] (setting [7]) were 94.4% and 102%, respectively.

For `CCn1c(OC(C)C)nnc1[C@@H](C)NS(=O)(=O)c1ccc(C(F)(F)F)cc1` [Compound 473], the values for the inhibition at 10 µM at human Edg-1(S1P1) [1] (setting [6]) and on human Edg-1(S1P1) [2] (setting [7]) were 91.7% and 95.1%, respectively.

In the case of `CCn1c(OC(C)C)nnc1[C@@H](C)NS(=O)(=O)c1cc(F)cc(F)c1` [Compound 474], the inhibition at 10 µM at human Edg-1(S1P1) [1] (setting [6]) amounted to 79%; at human Edg-1(S1P1) [2] (setting [7]), 93%.

Turning to `CCn1c(OC(C)C)nnc1[C@@H](C)NS(=O)(=O)c1cc(Cl)c(Cl)s1` [Compound 475], the results for the inhibition at 10 µM on human Edg-1(S1P1) [1] (setting [6]) and on human Edg-1(S1P1) [2] (setting [7]) were 86.4% and 97.9%, respectively.

Turning to `CCn1c(OC(C)C)nnc1[C@@H](C)NS(=O)(=O)c1ccc(I)cc1` [Compound 476], the inhibition at 10 µM at human Edg-1(S1P1) [1] (setting [6]) was found to be 86.1%; at human Edg-1(S1P1) [2] (setting [7]) it was 100%.

Regarding `CCn1c(OC(C)C)nnc1[C@@H](C)NS(=O)(=O)c1ccc(F)cc1` [Compound 477], the inhibition at 10 µM at human Edg-1(S1P1) [1] (setting [6]) was 77.1%; at human Edg-1(S1P1) [2] (setting [7]) it was 92%.

As to `CCn1c(OC(C)C)nnc1[C@@H](C)NS(=O)(=O)c1ccc(Br)c(C(F)(F)F)c1` [Compound 478], the figures for the inhibition at 10 µM on human Edg-1(S1P1) [1] (setting [6]) and at human Edg-1(S1P1) [2] (setting [7]) were 86% and 104%, respectively.

`CCn1c(OC(C)C)nnc1[C@@H](C)NS(=O)(=O)c1cccc(Cl)c1` [Compound 479]: the inhibition at 10 µM at human Edg-1(S1P1) [1] (setting [6]) worked out at 83%; at human Edg-1(S1P1) [2] (setting [7]), 93.3%.

With `CCc1ccc(S(=O)(=O)N[C@H](C)c2nnc(OC(C)C)n2CC)cc1` [Compound 480], the inhibition at 10 µM at human Edg-1(S1P1) [1] (setting [6]) amounted to 77.4%; at human Edg-1(S1P1) [2] (setting [7]), 93.1%.

Regarding `CCn1c(OC(C)C)nnc1[C@@H](C)NS(=O)(=O)c1cccc(OC)c1` [Compound 481], the values for the inhibition at 10 µM at human Edg-1(S1P1) [1] (setting [6]) and at human Edg-1(S1P1) [2] (setting [7]) were 64.9% and 96.3%, respectively.

`CCn1c(OC(C)C)nnc1[C@@H](C)NS(=O)(=O)c1cc(F)c(Br)cc1F` [Compound 482]: the inhibition at 10 µM at human Edg-1(S1P1) [1] (setting [6]) came to 72.3%; at human Edg-1(S1P1) [2] (setting [7]), 90.7%.

Turning to `CCn1c(OCC(F)(F)F)nnc1[C@@H](C)NS(=O)(=O)c1ccc(Br)s1` [Compound 484], the inhibition at 10 µM was determined as 63.2% on human Edg-1(S1P1) [1] (setting [6]) and 102% at human Edg-1(S1P1) [2] (setting [7]).

With `CCn1c(OCC(F)(F)F)nnc1[C@@H](C)NS(=O)(=O)c1ccc(Cl)c(Cl)c1` [Compound 485], the figures for the inhibition at 10 µM on human Edg-1(S1P1) [1] (setting [6]) and on human Edg-1(S1P1) [2] (setting [7]) were 95.5% and 103%, respectively.
